Test systems include OVCAR-5 ovarian; HOP-92 NSCLC; A549 NSCLC; IGROV1 ovarian; LOX IMVI melanoma; CCRF-CEM leukemia; KM12 colon; HCT-116 colon; ACHN renal; SK-MEL-5 melanoma.
Holding throughout (experiment): DTP human tumour cell line panel, 48 h

Values joined by “and” are separate entries in the source; they are usually repeats but may differ in a detail not shown here. Equal entries are not always repeated.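 Five concentrations, 48 hours, 96-well plates. GI50 marks 50% less growth. TGI: concentration producing complete growth inhibition.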 Where only a bound is given, the exact number is not on record here.

Broadly, the GI50 is the concentration at which growth is held to half of that of the control. By TGI is commonly meant the concentration giving total growth inhibition.

Turning to `CC1(C)N=C(N)N=C(N)N1c1ccc(OCC(=O)N2CCOCC2)c(Cl)c1`, the GI50 with OVCAR-5 ovarian is 84.4 µM; in the experiment with HOP-92 NSCLC it was above 100 µM; in the experiment on A549 NSCLC, 0.271 µM; in the experiment with IGROV1 ovarian it was 0.379 µM; in the experiment on LOX IMVI melanoma, 545 nM; in the experiment on CCRF-CEM leukemia it was 3.55 µM. Besides, the GI50 in the experiment with KM12 colon was 4.7 µM; in the experiment on HCT-116 colon it was 0.667 µM; with ACHN renal, above 100 µM; in the experiment on SK-MEL-5 melanoma, 1360 nM. In addition, the total growth inhibition concentration (TGI) in the experiment with OVCAR-5 ovarian was above 100 µM; in the experiment with HOP-92 NSCLC, above 100 µM; with A549 NSCLC, above 100 µM; in the experiment on IGROV1 ovarian, 12.9 µM; in the experiment on LOX IMVI melanoma, above 100 µM; with CCRF-CEM leukemia it was above 100 µM. Further, the TGI in the experiment on KM12 colon, with HCT-116 colon, in the experiment on ACHN renal and in the experiment on SK-MEL-5 melanoma was above 100 µM throughout.
For `COC(=O)c1c(C)cc2c(c1O)C1(O)C(=O)c3cc4c(c(O)c3C(=O)C1(OC)C(O)C2)C(=O)C=C(NC1OC(C)C(OC)C(O)C1OC)C4=O` (configuration not stated), the TGI was 0.401 µM in the experiment with OVCAR-5 ovarian; 0.443 µM in the experiment with HOP-92 NSCLC; 1.03 µM in the experiment with A549 NSCLC; 0.0635 µM with IGROV1 ovarian; 0.0866 µM in the experiment with LOX IMVI melanoma; 0.166 µM in the experiment with CCRF-CEM leukemia. In addition, the TGI is 0.562 µM with KM12 colon, 0.177 µM in the experiment with HCT-116 colon and 0.205 µM in the experiment on ACHN renal.
For `COc1cc(OC)c2cc(C(=O)O)c(=O)oc2c1`, the GI50 is above 100 µM with OVCAR-5 ovarian; above 100 µM in the experiment on HOP-92 NSCLC; above 100 µM in the experiment on A549 NSCLC; above 84.9 µM in the experiment with IGROV1 ovarian; above 100000 nM in the experiment with LOX IMVI melanoma; above 100 µM with CCRF-CEM leukemia. For the same molecule, the GI50 is above 100 µM in the experiment on KM12 colon, above 100 µM in the experiment on HCT-116 colon, above 100 µM in the experiment with ACHN renal and above 100000 nM in the experiment on SK-MEL-5 melanoma. Further, the TGI in the experiment with OVCAR-5 ovarian, in the experiment on HOP-92 NSCLC, with A549 NSCLC, in the experiment on IGROV1 ovarian, in the experiment with LOX IMVI melanoma and with CCRF-CEM leukemia was above 100 µM throughout. The TGI in the experiment on KM12 colon, in the experiment with HCT-116 colon, in the experiment with ACHN renal and in the experiment on SK-MEL-5 melanoma was above 100 µM each time.
For the molecule `C/C=C(\CCC1NCCc2c1[nH]c1ccccc21)[Si](C)(C)C` (configuration not stated), the GI50 is 6.34 µM and 2.42 µM in the experiment with OVCAR-5 ovarian; 5.2 µM and 2.56 µM in the experiment with HOP-92 NSCLC; 11.9 µM and 4 µM in the experiment with IGROV1 ovarian; 7.18 µM and 2.17 µM with CCRF-CEM leukemia; 6.18 µM and 1.9 µM with KM12 colon; 5.6 µM and 1.71 µM in the experiment with HCT-116 colon. Besides, the GI50 in the experiment on ACHN renal is 11.4 µM and 2.79 µM; with SK-MEL-5 melanoma it was 5630 nM and 2320 nM. Further, the TGI was 16.6 µM and 8.04 µM with OVCAR-5 ovarian; 12.3 µM and 8.5 µM in the experiment with HOP-92 NSCLC; 24.9 µM and 21 µM in the experiment on A549 NSCLC; 16.6 µM and 12.6 µM in the experiment on IGROV1 ovarian; 38.5 µM and 4.84 µM in the experiment on LOX IMVI melanoma; 17.2 µM and 8.44 µM in the experiment with CCRF-CEM leukemia. In addition, the concentration for total growth inhibition (TGI) with KM12 colon is 11.3 µM and 3.64 µM; in the experiment on HCT-116 colon, 10.3 µM and 3.13 µM; in the experiment on ACHN renal, 25 µM and 8.04 µM; in the experiment on SK-MEL-5 melanoma it was 10.2 µM and 5.23 µM.
Consider `COc1cc(C2CC(c3ccc(Nc4ccnc5cc(Cl)ccc45)cc3)=NN2C=O)cc(OC)c1OC` (configuration not stated), for which the GI50 was 69.2 µM in the experiment on OVCAR-5 ovarian; 1.83 µM in the experiment with HOP-92 NSCLC; 6.9 µM in the experiment on A549 NSCLC; 22.3 µM in the experiment with IGROV1 ovarian; 1890 nM with LOX IMVI melanoma; 1.82 µM with CCRF-CEM leukemia. For the same molecule, the GI50 with KM12 colon was 5.87 µM; with HCT-116 colon it was 3.21 µM; in the experiment on ACHN renal it was 3.24 µM; in the experiment with SK-MEL-5 melanoma it was 1980 nM. The TGI was above 100 µM in the experiment with OVCAR-5 ovarian; 5.59 µM in the experiment on HOP-92 NSCLC; above 100 µM with A549 NSCLC; above 100 µM in the experiment on IGROV1 ovarian; 3.85 µM in the experiment on LOX IMVI melanoma; 69.4 µM in the experiment with CCRF-CEM leukemia. Also, the TGI in the experiment with KM12 colon was above 100 µM; with HCT-116 colon, 9.61 µM; in the experiment with ACHN renal, 10.6 µM; in the experiment with SK-MEL-5 melanoma, 6.28 µM.
On to `Cn1cnc([N+](=O)[O-])c1SC1=NCCS1`, for which the TGI in the experiment on OVCAR-5 ovarian was above 100 µM; in the experiment on HOP-92 NSCLC, above 100 µM; in the experiment on A549 NSCLC, above 100 µM; in the experiment on IGROV1 ovarian it was above 100 µM; with LOX IMVI melanoma it was 39 µM; in the experiment on CCRF-CEM leukemia it was above 100 µM. In addition, the TGI in the experiment with KM12 colon, in the experiment with HCT-116 colon, with ACHN renal and in the experiment on SK-MEL-5 melanoma was above 100 µM in each case.
As for `COc1ccc(N(C)c2nc(Cl)nc3ccn(C)c23)cc1`, the GI50 in the experiment on OVCAR-5 ovarian is 7.54 µM; in the experiment with HOP-92 NSCLC, 1.79 µM; with A549 NSCLC, below 0.01 µM; with IGROV1 ovarian it was below 0.01 µM; in the experiment on LOX IMVI melanoma, below 10 nM; in the experiment with CCRF-CEM leukemia it was below 0.01 µM. The GI50 with KM12 colon is below 0.01 µM; with HCT-116 colon it was below 0.01 µM; in the experiment on ACHN renal it was below 0.01 µM; with SK-MEL-5 melanoma, below 10 nM. The TGI was above 100 µM in the experiment on OVCAR-5 ovarian; 67.5 µM in the experiment with HOP-92 NSCLC; above 100 µM in the experiment with A549 NSCLC; above 100 µM in the experiment on IGROV1 ovarian; above 100 µM in the experiment on LOX IMVI melanoma; above 100 µM in the experiment with CCRF-CEM leukemia. For the same molecule, the TGI was above 100 µM in the experiment on KM12 colon, above 100 µM in the experiment on HCT-116 colon, above 100 µM in the experiment on ACHN renal and below 0.01 µM in the experiment on SK-MEL-5 melanoma.
`NC(N)=N/N=C(/c1ccccc1)c1ccc(Cl)cc1`: the GI50 with OVCAR-5 ovarian was 47.3 µM; with HOP-92 NSCLC it was 4.09 µM; in the experiment on A549 NSCLC it was 15.5 µM; in the experiment with IGROV1 ovarian, 10.6 µM; in the experiment on LOX IMVI melanoma it was 18400 nM; in the experiment on CCRF-CEM leukemia, 3.89 µM. Besides, the GI50 with KM12 colon is 5.53 µM; with HCT-116 colon it was 4.71 µM; in the experiment on ACHN renal it was 40.6 µM; in the experiment with SK-MEL-5 melanoma, 5970 nM. Besides, the TGI was above 100 µM in the experiment with OVCAR-5 ovarian; 90.5 µM with HOP-92 NSCLC; above 100 µM in the experiment with A549 NSCLC; 82.5 µM with IGROV1 ovarian; above 100 µM in the experiment on LOX IMVI melanoma; above 100 µM in the experiment on CCRF-CEM leukemia. Moreover, the TGI in the experiment with KM12 colon was above 100 µM; in the experiment on HCT-116 colon, 63.6 µM; in the experiment with ACHN renal, above 100 µM; with SK-MEL-5 melanoma, 44.9 µM.

(Values after PubChem BioAssay (NCI).)
